US10906873B2, “Substituted cyclic amides as herbicides” (FMC Corporation, priority 2015, dated 2021)

Columns and labels:
Format in all cases: in vivo
[1] = system: barnyardgrass (Echinochloa crus-galli); test: Test A postemergence, barnyardgrass; conditions: 0 to 100 scale
Excerpt: (§1) Seeds of plant species selected from barnyardgrass (Echinochloa crus-galli), crabgrass (large crabgrass, Digitaria sanguinalis), kochia (Kochia scoparia), ragweed (common ragweed, Ambrosia elatior), morningglory (Ipomoea spp.), velvetleaf (Abutilon theophrasti), ryegrass, It. (Italian ryegrass, Lolium multiflorum), foxtail, giant (giant foxtail, Setaria faberii), wheat (Triticum aestivum), corn (Zea mays), and pigweed (Amaranthus retroflexus), were planted into a blend of loam soil and sand and treated preemergence with a directed soil spray using test chemicals formulated in a non-phytotoxic solvent mixture which included a surfactant. At the same time, plants selected from these crop and weed species and also blackgrass (Alopecurus myosuroides), and galium (catchweed bedstraw, Galium aparine), were planted in pots containing the same blend of loam soil and sand and treated with postemergence applications of test chemicals formulated in the same manner. Plants ranged in height from 2 to 10 cm and were in the one- to two-leaf stage for the postemergence treatment. Treated plants and untreated controls were maintained in a greenhouse for approximately 10 d, after which time all treated plants were compared to untreated controls and visually evaluated for injury. Plant response ratings, summarized in Table A, are based on a 0 to 100 scale where 0 is no effect and 100 is complete control. A dash (-) response means no test result.

kochia (Kochia scoparia) [2] = test: Test A preemergence, kochia; conditions: 0 to 100 scale
Excerpt: as §1

[3] = system: pigweed (Amaranthus retroflexus); test: Test A postemergence, pigweed; conditions: 0 to 100 scale
Excerpt: as §1

[4] = system: sedge, umbrella (small-flower umbrella sedge, Cyperus difformis); test: Test B flooded paddy test, sedge, umbrella; conditions: Flood, scale of 0 to 100 where 0 is no effect and 100 is complete control, 13 to 15 d
Method: (§2) Plant species in the flooded paddy test selected from rice (Oryza sativa), sedge, umbrella (small-flower umbrella sedge, Cyperus difformis), ducksalad (Heteranthera limosa), and barnyardgrass (Echinochloa crus-galli) were grown to the 2-leaf stage for testing. At time of treatment, test pots were flooded to 3 cm above the soil surface, treated by application of test compounds directly to the paddy water, and then maintained at that water depth for the duration of the test. Treated plants and controls were maintained in a greenhouse for 13 to 15 d, after which time all species were compared to controls and visually evaluated. Plant response ratings, summarized in Table B, are based on a scale of 0 to 100 where 0 is no effect and 100 is complete control. A dash (-) response means no test result.

[5] = system: barnyardgrass (Echinochloa crus-galli); test: Test A preemergence, barnyardgrass; conditions: 0 to 100 scale
Excerpt: as §1

corn (Zea mays) = test: Test A postemergence, corn; conditions: 0 to 100 scale
Excerpt: as §1

[6] = system: ducksalad (Heteranthera limosa); test: Test B flooded paddy test, ducksalad; conditions: Flood, scale of 0 to 100 where 0 is no effect and 100 is complete control, 13 to 15 d
Method: as §2

rice (Oryza sativa) = test: Test B flooded paddy test, rice; conditions: Flood, scale of 0 to 100 where 0 is no effect and 100 is complete control, 13 to 15 d
Method: as §2

[7] = system: ragweed (common ragweed, Ambrosia elatior); test: Test A preemergence, ragweed; conditions: 0 to 100 scale
Excerpt: as §1

[8] = system: foxtail, giant (giant foxtail, Setaria faberii); test: Test A postemergence, foxtail, giant; conditions: 0 to 100 scale
Excerpt: as §1

[9] = system: wheat (Triticum aestivum); test: Test A postemergence, wheat; conditions: 0 to 100 scale
Excerpt: as §1

[10] = system: barnyardgrass (Echinochloa crus-galli); test: Test B flooded paddy test, barnyardgrass; conditions: Flood, scale of 0 to 100 where 0 is no effect and 100 is complete control, 13 to 15 d
Method: as §2

[11] = system: pigweed (Amaranthus retroflexus); test: Test A preemergence, pigweed; conditions: 0 to 100 scale
Excerpt: as §1

[12] = system: galium (catchweed bedstraw, Galium aparine); test: Test A postemergence, galium; conditions: 0 to 100 scale
Excerpt: as §1

[13] = system: foxtail, giant (giant foxtail, Setaria faberii); test: Test A preemergence, foxtail, giant; conditions: 0 to 100 scale
Excerpt: as §1

[14] = system: ryegrass, It. (Italian ryegrass, Lolium multiflorum); test: Test A postemergence, ryegrass, It.; conditions: 0 to 100 scale
Excerpt: as §1

[15] = system: ragweed (common ragweed, Ambrosia elatior); test: Test A postemergence, ragweed; conditions: 0 to 100 scale
Excerpt: as §1

[16] = system: blackgrass (Alopecurus myosuroides); test: Test A postemergence, blackgrass; conditions: 0 to 100 scale
Excerpt: as §1

[17] = system: ryegrass, It. (Italian ryegrass, Lolium multiflorum); test: Test A preemergence, ryegrass, It.; conditions: 0 to 100 scale
Excerpt: as §1

kochia (Kochia scoparia) [18] = test: Test A postemergence, kochia; conditions: 0 to 100 scale
Excerpt: as §1

Structure (SMILES) | Plant response rating, Barnyardgrass ([1]; 125 g ai/ha) | Plant response rating, Barnyardgrass ([1]; 500 g ai/ha) | Plant response rating, Kochia (kochia (Kochia scoparia) [2]; 125 g ai/ha) | Plant response rating, Kochia (kochia (Kochia scoparia) [2]; 500 g ai/ha) | Plant response rating, Pigweed ([3]; 125 g ai/ha) | Plant response rating, Pigweed ([3]; 500 g ai/ha) | Plant response rating, Barnyardgrass ([5]; 125 g ai/ha) | Plant response rating, Barnyardgrass ([5]; 500 g ai/ha) | Plant response rating, Corn (corn (Zea mays); 125 g ai/ha) | Plant response rating, Corn (corn (Zea mays); 500 g ai/ha) | Plant response rating, Ragweed ([7]; 125 g ai/ha) | Plant response rating, Ragweed ([7]; 500 g ai/ha) | Plant response rating, Foxtail, Giant ([8]; 125 g ai/ha) | Plant response rating, Foxtail, Giant ([8]; 500 g ai/ha) | Plant response rating, Wheat ([9]; 125 g ai/ha) | Plant response rating, Wheat ([9]; 500 g ai/ha) | Plant response rating, Pigweed ([11]; 125 g ai/ha) | Plant response rating, Pigweed ([11]; 500 g ai/ha) | Plant response rating, Galium ([12]; 125 g ai/ha) | Plant response rating, Galium ([12]; 500 g ai/ha) | other results
O=C1NCC(Cc2cccc(F)c2F)C1C(=O)Nc1ccccc1C(F)(F)F (stereo not drawn) [Compound 10] | 0 | 0 | 0 | 0 | 0 | 0 | 0 | 0 | 0 | 0 | 0 | 0 | 0 | 0 | 0 | 0 | 0 | 0 | 0 | 0 | Plant response rating, Sedge, Umbrella ([4]; 500 g ai/ha): 0; Plant response rating, Ducksalad ([6]; 500 g ai/ha): 0; Plant response rating, Rice (rice (Oryza sativa); 500 g ai/ha): 0; Plant response rating, Barnyardgrass ([10]; 500 g ai/ha): 0; Plant response rating, Foxtail, Giant ([13]; 125 g ai/ha): 0; Plant response rating, Foxtail, Giant ([13]; 500 g ai/ha): 0; Plant response rating, Ryegrass, It. ([14]; 125 g ai/ha): 0; Plant response rating, Ryegrass, It. ([14]; 500 g ai/ha): 0; Plant response rating, Ragweed ([15]; 125 g ai/ha): 0; Plant response rating, Ragweed ([15]; 500 g ai/ha): 0; Plant response rating, Blackgrass ([16]; 125 g ai/ha): 0; Plant response rating, Blackgrass ([16]; 500 g ai/ha): 0; Plant response rating, Ryegrass, It. ([17]; 125 g ai/ha): 0; Plant response rating, Ryegrass, It. ([17]; 500 g ai/ha): 0; Plant response rating, Kochia (kochia (Kochia scoparia) [18]; 125 g ai/ha): 0; Plant response rating, Kochia (kochia (Kochia scoparia) [18]; 500 g ai/ha): 0
O=C(CCC1CNC(=O)C1C(=O)Nc1ccccc1F)Nc1ccc(F)cc1 (stereo not drawn) [Compound 15] | 0 | 0 | 0 | 0 | 0 | 0 | 0 | 0 | 0 | 0 | 0 | 0 | 0 | 0 | 0 | 0 | 0 | 0 | 0 | 0 | Plant response rating, Sedge, Umbrella ([4]; 500 g ai/ha): 0; Plant response rating, Ducksalad ([6]; 500 g ai/ha): 70; Plant response rating, Rice (rice (Oryza sativa); 500 g ai/ha): 0; Plant response rating, Barnyardgrass ([10]; 500 g ai/ha): 0; Plant response rating, Foxtail, Giant ([13]; 125 g ai/ha): 0; Plant response rating, Foxtail, Giant ([13]; 500 g ai/ha): 0; Plant response rating, Ryegrass, It. ([14]; 125 g ai/ha): 0; Plant response rating, Ryegrass, It. ([14]; 500 g ai/ha): 0; Plant response rating, Ragweed ([15]; 125 g ai/ha): 0; Plant response rating, Ragweed ([15]; 500 g ai/ha): 0; Plant response rating, Blackgrass ([16]; 125 g ai/ha): 0; Plant response rating, Blackgrass ([16]; 500 g ai/ha): 0; Plant response rating, Ryegrass, It. ([17]; 125 g ai/ha): 0; Plant response rating, Ryegrass, It. ([17]; 500 g ai/ha): 0; Plant response rating, Kochia (kochia (Kochia scoparia) [18]; 125 g ai/ha): 0; Plant response rating, Kochia (kochia (Kochia scoparia) [18]; 500 g ai/ha): 0
O=C1NCC(CCc2ccccc2)C1C(=O)Nc1cccc(F)c1F (stereo not drawn) [Compound 35, N-(2,3-difluorophenyl)-2-oxo-4-(2-phenylethyl)-3-pyrrolidinecarboxamide] | 0 | 30 | 0 | 50 | 0 | 0 | 0 | 30 | 0 | 0 | 0 | 0 | 0 | 30 | 0 | 0 | 0 | 0 | 0 | 0 | Plant response rating, Sedge, Umbrella ([4]; 250 g ai/ha): 0; Plant response rating, Ducksalad ([6]; 250 g ai/ha): 70; Plant response rating, Rice (rice (Oryza sativa); 250 g ai/ha): 0; Plant response rating, Barnyardgrass ([10]; 250 g ai/ha): 0; Plant response rating, Foxtail, Giant ([13]; 125 g ai/ha): 0; Plant response rating, Foxtail, Giant ([13]; 500 g ai/ha): 60; Plant response rating, Ryegrass, It. ([14]; 125 g ai/ha): 0; Plant response rating, Ryegrass, It. ([14]; 500 g ai/ha): 0; Plant response rating, Ragweed ([15]; 125 g ai/ha): 0; Plant response rating, Ragweed ([15]; 500 g ai/ha): 0; Plant response rating, Blackgrass ([16]; 125 g ai/ha): 0; Plant response rating, Blackgrass ([16]; 500 g ai/ha): 0; Plant response rating, Ryegrass, It. ([17]; 125 g ai/ha): 0; Plant response rating, Ryegrass, It. ([17]; 500 g ai/ha): 0; Plant response rating, Kochia (kochia (Kochia scoparia) [18]; 125 g ai/ha): 0; Plant response rating, Kochia (kochia (Kochia scoparia) [18]; 500 g ai/ha): 0
O=C1NCC(/C=C/c2ccccc2F)C1C(=O)Nc1cccc(F)c1F (stereo not drawn) [Compound 28] | 50 | 70 | 0 | 0 | 0 | 0 | 50 | 90 | 0 | 0 | 0 | 0 | 20 | 50 | 0 | 0 | 0 | 0 | 0 | 20 | Plant response rating, Sedge, Umbrella ([4]; 250 g ai/ha): 50; Plant response rating, Ducksalad ([6]; 250 g ai/ha): 90; Plant response rating, Rice (rice (Oryza sativa); 250 g ai/ha): 10; Plant response rating, Barnyardgrass ([10]; 250 g ai/ha): 90; Plant response rating, Foxtail, Giant ([13]; 125 g ai/ha): 50; Plant response rating, Foxtail, Giant ([13]; 500 g ai/ha): 90; Plant response rating, Ryegrass, It. ([14]; 125 g ai/ha): 0; Plant response rating, Ryegrass, It. ([14]; 500 g ai/ha): 0; Plant response rating, Ragweed ([15]; 125 g ai/ha): 0; Plant response rating, Ragweed ([15]; 500 g ai/ha): 0; Plant response rating, Blackgrass ([16]; 125 g ai/ha): 0; Plant response rating, Blackgrass ([16]; 500 g ai/ha): 0; Plant response rating, Ryegrass, It. ([17]; 125 g ai/ha): 0; Plant response rating, Ryegrass, It. ([17]; 500 g ai/ha): 0; Plant response rating, Kochia (kochia (Kochia scoparia) [18]; 125 g ai/ha): 0; Plant response rating, Kochia (kochia (Kochia scoparia) [18]; 500 g ai/ha): 0
Cc1cccc(C#CC2CNC(=O)C2C(=O)Nc2cccc(F)c2F)c1 (stereo not drawn) [Compound 22] | 40 | 70 | 0 | 20 | 0 | 0 | 60 | 80 | 0 | 20 | 0 | 0 | 20 | 50 | 0 | 0 | 0 | 0 | 0 | 20 | Plant response rating, Sedge, Umbrella ([4]; 250 g ai/ha): 0; Plant response rating, Ducksalad ([6]; 250 g ai/ha): 70; Plant response rating, Rice (rice (Oryza sativa); 250 g ai/ha): 0; Plant response rating, Barnyardgrass ([10]; 250 g ai/ha): 0; Plant response rating, Foxtail, Giant ([13]; 125 g ai/ha): 50; Plant response rating, Foxtail, Giant ([13]; 500 g ai/ha): 70; Plant response rating, Ryegrass, It. ([14]; 125 g ai/ha): 0; Plant response rating, Ryegrass, It. ([14]; 500 g ai/ha): 0; Plant response rating, Ragweed ([15]; 125 g ai/ha): 0; Plant response rating, Ragweed ([15]; 500 g ai/ha): 0; Plant response rating, Blackgrass ([16]; 125 g ai/ha): 0; Plant response rating, Blackgrass ([16]; 500 g ai/ha): 0; Plant response rating, Ryegrass, It. ([17]; 125 g ai/ha): 0; Plant response rating, Ryegrass, It. ([17]; 500 g ai/ha): 0; Plant response rating, Kochia (kochia (Kochia scoparia) [18]; 125 g ai/ha): 0; Plant response rating, Kochia (kochia (Kochia scoparia) [18]; 500 g ai/ha): 0
